Data published in patent US10906864B2, “Nitroalkene non steroidal anti-inflammatory drugs (NA-NSAIDS) and methods of treating inflammation related conditions” (Institut Pasteur de Montevideo, priority 2017, dated 2021).

What was measured:
[1] = system: NF-κB and inflammasome function in macrophages (THP-1 cells); assay: IL-1β secretion by ELISA in PMA-differentiated THP-1 macrophages stimulated with LPS and ATP; type: cell-based
Experimental: In order to compare benzoic acid (BA) and nitroalkene benzoic acid (BANA) over NF-κB and inflammasome function in macrophages, THP-1 cells were differentiated into macrophages with PMA (200 nM, 48 h). Cells were then stimulated with LPS (250 ng/mL) and with ATP (5 mM, 45 minutes). Together with LPS (1st signal, FIG. 6) or ATP (2nd signal, FIG. 7), cells were treated with Benzoic acid (30 μM) or BANA (30 μM). Supernatants were collected and IL-1β secretion was measured by ELISA. […] Thus, BANA inhibits both the generation of the inflammasome, and inhibits the inflammasome itself. Further exemplary studies were performed with Flufenamate (FluFE) and nitroalkene flufenamate (FluFENA). In order to study the effect of Flufenamate (FluFE) and FluFENA over NF-κB and inflammasome function in macrophages, THP-1 cells were differentiated into macrophages with PMA (200 nM, 48 h). Cells were stimulated with LPS (250 ng/mL) and then with ATP (5 mM, 45 minutes). […] Cells were stimulated with LPS (250 ng/mL) and then with ATP (5 mM, 45 minutes). Together with LPS (1st signal, FIG. 10) or ATP (2nd signal, FIG. 11), cells were treated with Ibuprofen (20 μM) or IBUNA ([…] were collected and IL-1β secretion was measured by ELISA.

[2] = system: in vivo model of peritonitis; assay: In vivo model of peritonitis (LPS-induced inflammatory response), IL-1β by ELISA; set-up: species or system Mice
Experimental: Mice were treated with BANA, Benzoic Acid (50 mg/kg, IP) or the vehicle (100 mM Phosphate buffer 10% DMSO) for 1 hour. Then were injected with LPS (10 mg/kg, IP) or PBS for 2 hours. Mice were collected for peritoneal wash and blood samples were extracted. The peritoneal wash and plasma were stored to measure IL-1β by ELISA. The values are show as mean±SD from three mice per condition and we have used the statistic test one-way ANOVA with Bonferroni.

[3] = mice, 50 mg/kg IP 1 hour before LPS 10 mg/kg IP for 2 hours, as opposed to BA

CC(C)Cc1ccc(C(C)C(=O)O)cc1/C=C/[N+](=O)[O-] (stereo not shown) [IBUNA, (E)-2-(4-isobutyl-3-(2-nitrovinyl)phenyl)propanoic acid]
IL-1β secretion, treatment together with LPS (1st signal) or ATP (2nd signal), versus Ibuprofen ([1]; Ibuprofen (20 μM) or IBUNA (20), FIG. 10 and FIG. 11): unexpected superiority

O=C(O)c1ccc(/C=C/[N+](=O)[O-])cc1 [BANA, (E)-4-(2-nitrovinyl)benzoic acid]
IL-1β release in LPS-induced inflammatory response (FIG. 12 legend) ([2]; in vivo): in vivo inhibition of IL-1β release | level of IL-1β in blood plasma [2, 3]: marked decrease | level of IL-1β in peritoneal wash [2, 3]: marked decrease | IL-1β secretion, treatment together with LPS (1st signal) ([1]; 30 μM, LPS 250 ng/mL then ATP 5 mM 45 minutes, FIG. 6): inhibition of IL-1β secretion in cells stimulated by LPS | IL-1β secretion, treatment together with ATP (2nd signal) ([1]; 30 μM, LPS 250 ng/mL then ATP 5 mM 45 minutes, FIG. 7): inhibition of IL-1β secretion in cells stimulated by ATP

O=C(O)c1cc(/C=C/[N+](=O)[O-])ccc1Nc1cccc(C(F)(F)F)c1 [FluFENA, (E)-5-(2-nitrovinyl)-2-((3-(trifluoromethyl)phenyl)amino)benzoic acid]
IL-1β secretion, treatment together with LPS (1st signal) or ATP (2nd signal), versus Flufenamate (FluFE) ([1]; FluFE (5 μM) or FluFENA (5), FIG. 8 and FIG. 9): unexpected advantage
